According to patent US5213797A, “A80407 antibiotics” (Eli Lilly and Company, priority 1990, dated 1993):
Bridge positions count the residues as written; N and C are the ends. Square brackets hold non-standard residues; d marks the D form. Peptide text beside a SMILES is read from it. * marks the point of attachment. Ileψ(thiazoline)Cys = CC[C@H](C)[C@H](N)C1=N[C@H](C(=O)*)CS1; dOrn = NCCC[C@@H](N)C(=O)O

How the values were obtained:
[1] = system: Kibdelosporangium philippinensis (cultures A80407 and A80407.4); assay: Resistance to antibiotics of the producing cultures, antibiotic sensitivity discs on seeded ISP No. 2 agar; details: 10 units; both cultures
[2] = system: Kibdelosporangium philippinensis (cultures A80407 and A80407.4); assay: Lysozyme resistance of the producing cultures; format: cell-based; details: both cultures
Text: Methods recommended by Gordon et.al. [R. E. Gordon, D. A. Barnett, J. E. Handerhan, and C. H. Pang, "Nocardia coeliaca, Nocardia autotrophica, and the Nocardin Strain," Int. J. Syst. Bacteriol. 24, (1), 54-63 (1974)] were followed for the majority of physiological tests.

CC[C@H](C)[C@H](N)C1=N[C@H](C(=O)N[C@@H](CC(C)C)C(=O)N[C@H](CCC(=O)O)C(=O)N[C@H](C(=O)N[C@H]2CCCCNC(=O)[C@H](CC(N)=O)NC(=O)[C@@H](CC(=O)O)NC(=O)[C@H](Cc3cnc[nH]3)NC(=O)[C@@H](Cc3ccccc3)NC(=O)[C@H]([C@@H](C)CC)NC(=O)[C@@H](CCCN)NC2=O)[C@@H](C)CC)CS1 [bacitracin] ({Ileψ(thiazoline)Cys}-L[dE]IK[dOrn]I[dF]H[dD]N; lactam 4-C)
Resistance to antibiotics [1]: sensitive

lysozyme
Resistance to lysozyme [2]: Neither culture was resistant
